Reference: US12576155B2, “Senolytic and antiinflammatory prodrugs and methods of use thereof” (priority 2019, dated 2026)

Tests used:
[1] = system: primary mouse fibroblasts and their replication-induced senescent counterparts; assay: Cell viability testing, senescent vs non-senescent primary mouse fibroblasts; format: cell-based; details: increasing doses; senescent vs non-senescent cells
Experimental: (§1) Mouse embryonic fibroblasts (MEFs) were isolated from E13.5 embryos as described previously (Zhao et al., Cell Stem Cell 23, 31-45 e37([…])). Newborn mouse skin fibroblasts (NBFs) were isolated from the skin of day 1-3 newborn mice. Adult mouse lung fibroblasts were isolated from 2-month-old and 23-month-old mice. Briefly, mouse embryonic tissues, skin and lung were obtained from described donor mice. Then, these tissues were minced with forceps and incubated in 2 mg/ml collagenase IV (Gibco) for 2-4 hours at 37° C. After enzyme treatment, cells were collected by centrifugation and resuspended in high-glucose DMEM (Gibco) supplemented with 10% fetal bovine serum (FBS) and 1% penicillin-streptomycin (Gibco). The three types of mouse primary cells were all cultured in a humidified incubator at 37° C. and 5% CO2.
To avoid replication-induced senescent cells, low-passage proliferative NBFs (<3 passages), MEFs (<3 passages), mouse lung fibroblasts (<3 passages), HEFs (<10 passages), and HUVECs (<6 passages) were used as normal controls. To induce cell quiescence, MEFs were cultured in DMEM without FBS for 2 days.
(§2) For replication-induced senescence, cells were passaged until they lost the ability to proliferate and became senescent. NBFs were used as senescent cells after approximately 8-9 passages or 12 population doublings. HEFs were used after approximately 35 passages or 50 population doublings. HUVECs were senescent after approximately 18 passages or 24 population doublings.
(§3) To test the viability of senescent and non-senescent cells treated with SSK1, cells were stained with a mixture of Hoechst 33342 and propidium iodide (PI) (CA1120, Solarbio) to distinguish living and dead cells. After treatment with the small molecules, the cell culture medium was removed, and the cells were washed once with PBS. […] The plate was incubated at 4° C. for 30 min and observed on a fluorescence microscope or automatic cell imaging system. Viable cells were quantified using a MD Image Xpress Micro XL (Molecular Devices).

[2] = system: p38 MAPK; assay: Western blotting of phos-p38 MAPK in senescent cells; format: cell-based, mouse; details: 0.5 μM SSK1, after 36 hours of treatment
Experimental: Senescent NBF cells were plated and incubated overnight at 37° C. The cells were treated with 0.05 μM gemcitabine or 0.5 μM SSK1 prodrug for the indicated time. Before harvest, cells were washed twice with pre-cooled PBS buffer. Total protein was extracted with lysis buffer (50 mM Tris-HCl (pH 7.5), 137 mM sodium chloride, 1 mM EDTA, 1% Nonidet P-40, 10% glycerol, 0.1 mM sodium orthovanadate, 10 mM sodium pyrophosphate, 20 mM β-glycerophosphate, 50 mM sodium fluoride, 1 mM phenylmethylsulfonyl fluoride), and the protein concentrations were normalized using the BCA Protein Assay Kit (Pierce). Protein samples were mixed with protein loading buffer and incubated at 95° C. for 5 min. Western blotting was performed by using the following antibodies: phospho-specific p38 MAPK (Thr180/Tyr182) (Cell Signaling Technology, CST, catalog number 4511) and p38 (CST, catalog number 8690); phospho-histone H2A.X (Ser139) (CST, catalog number 9718) and histone H2A.X (CST, catalog number 7631). The β-tubulin protein level was also determined as the loading control by using the β-tubulin antibody (CST, catalog number 2128).

[3] = system: senescent cells; assay: Flow cytometry of apoptosis (annexin V / propidium iodide) in senescent cells; format: cell-based; details: SSK1-treated senescent cells; after 36 hours of treatment
Experimental: Fibroblasts were digested into single cell suspensions by incubation with 0.25% trypsin-EDTA (Invitrogen) at 37° C. for 3-5 min or with accutase at 37° C. for 10 min. Cells were then stained with FITC annexin V and propidium iodide (PI) according to the manufacturer's protocol (FITC Annexin V Apoptosis Detection Kit I, BD Pharmingen™). For chondrocytes Annexin V/7-AAD analysis, the trypsinized live chondrocytes and floating cells were collected, centrifuged and washed with PBS. Cells were stained with the Annexin V Apoptosis Detection Kit (Biolegend, 640934) according to the manufacturer's instruction. Before the flow cytometric analysis, the precision count beads (Biolegend, 424902) were added to count the absolute live cell numbers. Flow cytometry was performed within one hour on an Aria III (BD Biosciences) or FACSVerse (BD Biosciences). Data were analyzed using FlowJo software (FlowJo LLC).

[4] = system: senescent mouse fibroblasts induced by ionizing irradiation, oncogene overexpression, or genotoxic stress (etoposide treatment); assay: Cell viability, oncogene-, etoposide- and irradiation-induced senescent MEFs; format: cell-based; details: oncogene- (Kras), etoposide- and irradiation- (10 Gy) induced senescent MEFs vs non-senescent; increasing doses
[5] = system: senescent lung cells from 23-month-old mice; assay: Cell viability, mouse lung fibroblasts of old and young mice; format: cell-based; details: senescent lung cells from 23-month-old mice vs non-senescent lung cells from young mice; increasing doses
Experimental: as §1, §3

[6] = system: senescent human umbilical vein endothelial cells (HUVECs); assay: Cell viability, senescent and non-senescent HUVECs; format: cell-based; details: replication-induced senescent vs non-senescent HUVECs; increasing doses
Excerpt: as §2
To test the viability of senescent and non-senescent cells treated with SSK1, cells were stained with a mixture of Hoechst 33342 and propidium iodide (PI) (CA1120, Solarbio) to distinguish living and dead cells. After treatment with the small molecules, the cell culture medium was removed, and the cells were washed once with PBS. Then, the cells were stained according to the manufacturer's protocol, where the final concentrations of Hoechst 33342 and PI were 5 μg/ml and 2 μg/ml in PBS buffer. The plate was incubated at 4° C. for 30 min and observed on a fluorescence microscope or automatic cell imaging system. Viable cells were quantified using a MD Image Xpress Micro XL (Molecular Devices).

[7] = system: SARS-CoV-2-infected rhesus macaques; assay: SARS-CoV-2-infected rhesus macaques, early-stage SSK1 treatment (2.0 mg/kg once daily for 7 days from 0 dpi); format: in vivo; details: for Clinical observation: Body weight change (%) / Clinical observation: Increased temperature: 2.0 mg/kg

SMILES: CC(=O)OCC1O[C@@H](Oc2ccc(COC(=O)Nc3ccn([C@@H]4O[C@H](CO)C(O)C4(F)F)c(=O)n3)cc2[N+](=O)[O-])C(OC(C)=O)C(OC(C)=O)[C@H]1OC(C)=O (stereo partly shown) [SSK1]
- Selective killing of senescent cells (viable cells) [1]: selectively and potently eliminated SA-β-gal-positive senescent cells over non-senescent cells with a wide therapeutic window
- State of p38 MAPK (phosphorylation) [2]: activated p38 MAPK by phosphorylation
- Apoptosis (annexin V / PI) [3]: induced apoptosis in senescent cells
- Selective killing of senescent cells (viable cells) [4]: selectively killed by SSK1, while non-senescent cells were largely unaffected
- Selective elimination of senescent cells (viable cells) [5]: specifically eliminated these senescent cells
- Selective killing of senescent cells (viability) [6]: selectively killed by SSK1
- Progression of pulmonary infiltrates on chest X-ray ([7]; 6 dpi compared to 3 dpi): no progression
- Clinical observation: Body weight change (%) ([7]; M1 adult 5-year): +4.62%
- Clinical observation: Increased temperature ([7]; M1 adult 5-year): light
- Clinical observation: Body weight change (%) ([7]; M2 adult 5-year): +1.64%
- Clinical observation: Increased temperature ([7]; M2 adult 5-year): light
- Large necrotic lesions in the livers at necropsy ([7]; SSK1-treated group): not in the SSK1-treated group
- Lung histopathology (H&E) ([7]; SSK1-treated group): minimally thickened alveolar septum and focal edema
- Serum level of IL-18 ([7]; SSK1-treated group): increased significantly
- Virus shedding (virus load in nose, throat, anal swabs and blood, RT-qPCR) ([7]; SSK1-treated group): no delay but even faster reduction in virus shedding
- Body temperature ([7]; SSK1-treated group, 2 mg/kg): relatively stable
- Body weight ([7]; SSK1-treated group, 2 mg/kg, 0 to 7 dpi): remained constant
- Airway narrowing and mucinous secretions (AB-PAS staining) ([7]; SSK1 treatment): recovered the airway narrowing and extensive mucinous secretions
- Gross lung lesions at necropsy ([7]; animal M1): Some brown punctate lesions
- Pulmonary hemorrhages (H&E) ([7]; animal M1): local pulmonary hemorrhages
- Ground-glass opacification in the lungs on X-ray ([7]; animal M1, 2 mg/kg, 3 dpi): Ground-glass opacification appeared
- Gross lung lesions at necropsy ([7]; animal M2): No obvious lung lesions
- Signs of pneumonia on X-ray ([7]; animal M2, 2 mg/kg): no signs of pneumonia on X-ray throughout the experiment
- Concentrations of inflammatory cytokines GM-CSF, IL-1β, IL-12, MIP-1A and TNF-α in lung tissues ([7]; vs vehicle): lower
- Viral load in the respiratory tract tissues and multiple organs ([7]; vs vehicle-treated group): grossly lower
